According to PubChem BioAssay (NCI):
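The concentration for 50% growth inhibition is given as GI50. TGI: concentration producing complete growth inhibition.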

Key:
Assay in all cases: growth of human tumour cells (NCI), 384-well format
TK-10 renal = system: TK-10 renal
SF-539 CNS = system: SF-539 CNS
HCT-116 colon = system: HCT-116 colon
MALME-3M melanoma = system: MALME-3M melanoma
SK-OV-3 ovarian = system: SK-OV-3 ovarian
SK-MEL-5 melanoma = system: SK-MEL-5 melanoma
NCI-H322M lung = system: NCI-H322M lung
NCI/ADR-RES ovarian = system: NCI/ADR-RES ovarian
HOP-62 NSCLC = system: HOP-62 NSCLC
UACC-62 melanoma = system: UACC-62 melanoma
HCC-2998 colon = system: HCC-2998 colon
MDA-MB-231 breast = system: MDA-MB-231 breast
HL-60(TB) leukemia = system: HL-60(TB) leukemia
IGROV1 ovarian = system: IGROV1 ovarian
MCF7 breast = system: MCF7 breast
MDA-MB-468 breast = system: MDA-MB-468 breast
HS 578T breast = system: HS 578T breast
COLO 205 colon = system: COLO 205 colon
SNB-75 CNS = system: SNB-75 CNS
MOLT-4 leukemia = system: MOLT-4 leukemia
SF-268 CNS = system: SF-268 CNS
CAKI-1 renal = system: CAKI-1 renal
A498 renal = system: A498 renal
NCI-H23 lung = system: NCI-H23 lung
PC-3 prostate = system: PC-3 prostate
DU-145 prostate = system: DU-145 prostate
SNB-19 CNS = system: SNB-19 CNS
T-47D breast = system: T-47D breast
RPMI-8226 leukemia = system: RPMI-8226 leukemia
RXF 393 renal = system: RXF 393 renal
OVCAR-4 ovarian = system: OVCAR-4 ovarian
SR leukemia = system: SR leukemia
MDA-MB-435 melanoma = system: MDA-MB-435 melanoma
HOP-92 NSCLC = system: HOP-92 NSCLC
KM12 colon = system: KM12 colon
ACHN renal = system: ACHN renal
SF-295 CNS = system: SF-295 CNS
SW-620 colon = system: SW-620 colon
786-0 renal = system: 786-0 renal
M14 melanoma = system: M14 melanoma
UO-31 renal = system: UO-31 renal
NCI-H460 NSCLC = system: NCI-H460 NSCLC
U251 glioblastoma = system: U251 glioblastoma
A549 NSCLC = system: A549 NSCLC
EKVX NSCLC = system: EKVX NSCLC
OVCAR-8 ovarian = system: OVCAR-8 ovarian
OVCAR-3 ovarian = system: OVCAR-3 ovarian
UACC-257 melanoma = system: UACC-257 melanoma
NCI-H522 lung = system: NCI-H522 lung
HCT-15 colon = system: HCT-15 colon
HT29 colon = system: HT29 colon
BT-549 breast = system: BT-549 breast
NCI-H226 lung = system: NCI-H226 lung
SK-MEL-28 melanoma = system: SK-MEL-28 melanoma
LOX IMVI melanoma = system: LOX IMVI melanoma
SN12C renal = system: SN12C renal
OVCAR-5 ovarian = system: OVCAR-5 ovarian

For `CC(C)C[C@H](NC(=O)[C@H](CCc1ccccc1)NC(=O)CN1CCOCC1)C(=O)N[C@@H](Cc1ccccc1)C(=O)N[C@@H](CC(C)C)C(=O)[C@@]1(C)CO1`, the GI50 (TK-10 renal) was 21.2 nM, the TGI (TK-10 renal) was 54 nM and the GI50 (SF-539 CNS) was < 10 nM. For the same molecule, the TGI (SF-539 CNS) was < 10 nM, the GI50 (HCT-116 colon) was < 10 nM and the TGI (HCT-116 colon) was < 10 nM. For the same molecule, the GI50 (MALME-3M melanoma) was < 10 nM, the TGI (MALME-3M melanoma) was 18.8 nM and the GI50 (SK-OV-3 ovarian) was 14.1 nM. The TGI (SK-OV-3 ovarian) was 33.6 nM, the GI50 (SK-MEL-5 melanoma) was < 10 nM and the TGI (SK-MEL-5 melanoma) was 21.6 nM. It also gave a GI50 (NCI-H322M lung) of 15.5 nM, a TGI (NCI-H322M lung) of 33.7 nM and a GI50 (NCI/ADR-RES ovarian) of 422 nM. For the same molecule, the TGI (NCI/ADR-RES ovarian) was 1610 nM, the GI50 (HOP-62 NSCLC) was < 10 nM and the TGI (HOP-62 NSCLC) was < 10 nM. The GI50 (UACC-62 melanoma) was < 10 nM, the TGI (UACC-62 melanoma) was 19.3 nM and the GI50 (HCC-2998 colon) was < 10 nM. For the same molecule, the TGI (HCC-2998 colon) was 14 nM, the GI50 (MDA-MB-231 breast) was < 10 nM and the TGI (MDA-MB-231 breast) was < 10 nM. The GI50 (HL-60(TB) leukemia) was < 10 nM, the TGI (HL-60(TB) leukemia) was < 10 nM and the GI50 (IGROV1 ovarian) was 15 nM. The TGI (IGROV1 ovarian) was 30.1 nM, the GI50 (MCF7 breast) was < 10 nM and the TGI (MCF7 breast) was 12.4 nM. For the same molecule, the GI50 (MDA-MB-468 breast) was < 10 nM, the TGI (MDA-MB-468 breast) was 16.1 nM and the GI50 (HS 578T breast) was < 10 nM. For the same molecule, the TGI (HS 578T breast) was < 10 nM, the GI50 (COLO 205 colon) was 28.3 nM and the TGI (COLO 205 colon) was 105 nM. The GI50 (SNB-75 CNS) was 15.4 nM, the TGI (SNB-75 CNS) was 30.6 nM and the GI50 (MOLT-4 leukemia) was < 10 nM. For the same molecule, the TGI (MOLT-4 leukemia) was < 10 nM, the GI50 (SF-268 CNS) was < 10 nM and the TGI (SF-268 CNS) was < 10 nM. The GI50 (CAKI-1 renal) was 17.6 nM, the TGI (CAKI-1 renal) was 53.9 nM and the GI50 (A498 renal) was < 10 nM. For the same molecule, the TGI (A498 renal) was 24.5 nM, the GI50 (NCI-H23 lung) was < 10 nM and the TGI (NCI-H23 lung) was < 10 nM. For the same molecule, the GI50 (PC-3 prostate) was 10.5 nM, the TGI (PC-3 prostate) was 23.3 nM and the GI50 (DU-145 prostate) was < 10 nM. It also gave a TGI (DU-145 prostate) of 19.5 nM, a GI50 (SNB-19 CNS) of 12.3 nM and a TGI (SNB-19 CNS) of 38.8 nM. For the same molecule, the GI50 (T-47D breast) was < 10 nM, the TGI (T-47D breast) was 18 nM and the GI50 (RPMI-8226 leukemia) was < 10 nM. The TGI (RPMI-8226 leukemia) was < 10 nM, the GI50 (RXF 393 renal) was < 10 nM and the TGI (RXF 393 renal) was < 10 nM. The GI50 (OVCAR-4 ovarian) was < 10 nM, the TGI (OVCAR-4 ovarian) was 18.3 nM and the GI50 (SR leukemia) was < 10 nM. For the same molecule, the TGI (SR leukemia) was < 10 nM, the GI50 (MDA-MB-435 melanoma) was < 10 nM and the TGI (MDA-MB-435 melanoma) was 21.5 nM. For the same molecule, the GI50 (HOP-92 NSCLC) was 11.6 nM, the TGI (HOP-92 NSCLC) was 24.3 nM and the GI50 (KM12 colon) was < 10 nM. For the same molecule, the TGI (KM12 colon) was < 10 nM, the GI50 (ACHN renal) was 33.2 nM and the TGI (ACHN renal) was 109 nM. For the same molecule, the GI50 (SF-295 CNS) was 13.2 nM, the TGI (SF-295 CNS) was 26.1 nM and the GI50 (SW-620 colon) was < 10 nM. For the same molecule, the TGI (SW-620 colon) was < 10 nM, the GI50 (786-0 renal) was < 10 nM and the TGI (786-0 renal) was 16.5 nM. For the same molecule, the GI50 (M14 melanoma) was < 10 nM, the TGI (M14 melanoma) was 19.1 nM and the GI50 (UO-31 renal) was 35.9 nM. It also gave a TGI (UO-31 renal) of 110 nM, a GI50 (NCI-H460 NSCLC) of 18.2 nM and a TGI (NCI-H460 NSCLC) of 33.6 nM. The GI50 (U251 glioblastoma) was < 10 nM, the TGI (U251 glioblastoma) was 21.2 nM and the GI50 (A549 NSCLC) was < 10 nM. The TGI (A549 NSCLC) was 25.7 nM, the GI50 (EKVX NSCLC) was 13.1 nM and the TGI (EKVX NSCLC) was 36.2 nM. The GI50 (OVCAR-8 ovarian) was 14.6 nM, the TGI (OVCAR-8 ovarian) was 28 nM and the GI50 (OVCAR-3 ovarian) was < 10 nM. For the same molecule, the TGI (OVCAR-3 ovarian) was < 10 nM, the GI50 (UACC-257 melanoma) was 14.6 nM and the TGI (UACC-257 melanoma) was 28.8 nM. The GI50 (NCI-H522 lung) was < 10 nM, the TGI (NCI-H522 lung) was 10.8 nM and the GI50 (HCT-15 colon) was 23.9 nM. For the same molecule, the TGI (HCT-15 colon) was 86.9 nM, the GI50 (HT29 colon) was < 10 nM and the TGI (HT29 colon) was < 10 nM. The GI50 (BT-549 breast) was < 10 nM, the TGI (BT-549 breast) was < 10 nM and the GI50 (NCI-H226 lung) was < 10 nM. The TGI (NCI-H226 lung) was < 10 nM, the GI50 (SK-MEL-28 melanoma) was 17.2 nM and the TGI (SK-MEL-28 melanoma) was 36.8 nM. The GI50 (LOX IMVI melanoma) was < 10 nM, the TGI (LOX IMVI melanoma) was < 10 nM and the GI50 (SN12C renal) was 15 nM. The TGI (SN12C renal) was 29.1 nM, the GI50 (OVCAR-5 ovarian) was 17.3 nM and the TGI (OVCAR-5 ovarian) was 45.3 nM.
